Assay: Cyclic voltammetry of electrolyte solution
Format: physicochemical
Conditions: for Number of reaction electrons: reversibly usable electrons
Description: For analysis of electrochemical properties of an electrolyte solution, cyclic voltammetry (CV) was used. The cyclic voltammetry is an electrochemical measurement method which is commonly used a lot, and is a method of obtaining a current-potential curve by scanning an electrode potential of a working electrode with a triangular wave at a constant speed. A method of recording a current flowing when potential is changed in proportion to time as a potential-current curve is called a potential sweep method, and when the potential is repeatedly applied, it is called cyclic voltammetry. The cyclic voltammetry allows qualitative understanding of a reaction occurring on an electrode surface such as potential at the reaction occurs, reaction speed, and reactivity of a reaction product, and is widely used in the electrochemical field.
During cyclic voltammetry measurement, a potential scanning speed was applied at 10 to 300 mV/s, and the measurement results are shown in FIGS. 1 to 3.

[1] = 0.01 M in 1 M Na2SO4, glassy carbon working electrode

C[n+]1ccc(-c2cc[n+](C)cc2)cc1.O.[Cl-].[Cl-] [Comparative Example 1, methyl viologen dichloride hydrate]
Negative electrode one-electron reaction potential [1]: −0.54 V vs. NHE
Reduction and oxidation currents, negative electrode area, first electron reaction (FIG. 1, text): around −0.54 V
Reduction and oxidation currents, negative electrode area, second electron reaction (FIG. 1, text): ~−0.75 V
Reversibility of second electron (two-electron) reaction in negative electrode area (cyclic voltammetry curves): irreversible

C[n+]1ccc(-c2cc[n+](-c3cc(O)ccc3O)cc2)cc1 [Comparative Example 2]
Negative electrode one-electron reaction potential [1]: −0.34 V vs. NHE
Positive electrode reaction potential [1]: 0.59 V vs. NHE
Reduction and oxidation currents, negative electrode area, first electron reaction (FIG. 1, text): around −0.34 V
Reduction and oxidation currents, negative electrode area, second electron reaction (FIG. 1, text): ~−0.65 V
Two-electron reduction and oxidation currents derived from hydroquinone, positive electrode area (FIG. 1, text): 0.59 V
Reversibility of second electron (two-electron) reaction in negative electrode area (cyclic voltammetry curves): did not reach a target level
Number of reaction electrons: 1

C[N+](C)(C)CCC[n+]1ccc(-c2cc[n+](-c3cc(O)ccc3O)cc2)cc1 [Example 1]
Negative electrode one-electron reaction potential [1]: −0.48 V vs. NHE
Negative electrode two-electron reaction potential [1]: −0.80 V vs. NHE
Positive electrode reaction potential [1]: 0.46 V vs. NHE
Reversibility of second electron (two-electron) reaction in negative electrode area (cyclic voltammetry curves): showed a reversible shape
Reversibility in positive electrode area (cyclic voltammetry curves, 100 mV s^−1, FIG. 3): reversible behavior was shown
Number of reaction electrons: 2
